Measurements reported in the supplement of paper PMC8882468.

Assays:
Experiment in all cases: CTG-3D luminescence at 96 h relative to day-0 seeding control (ratio to day 0); higher = more growth / less cytotoxicity; PDxO 3D drug screen (set 2), 96 h, CTG-3D normalised to day-0 seeding control.
HCI-002 = test system: HCI-002 (organoid from a triple-negative breast cancer xenograft)
HCI-019 = test system: HCI-019 (organoid from a triple-negative breast cancer xenograft)
HCI-023 = test system: HCI-023 (organoid from a triple-negative breast cancer xenograft)
HCI-024 = test system: HCI-024 (organoid from a breast cancer xenograft)
HCI-027 = test system: HCI-027 (organoid from a triple-negative breast cancer xenograft)

COc1cccc2c1C(=O)c1c(O)c3c(c(O)c1C2=O)C[C@@](O)(C(=O)CO)C[C@@H]3O[C@H]1C[C@H](N)[C@@H](O)[C@H](C)O1 [epirubicin]
CTG-3D luminescence at 96 h
Conditions | 12.5 pM | 0.00025 µM | 0.005 µM | 0.1 µM | 1 µM | 10 µM | 100 µM | 625 fM
HCI-002, days in culture: 127 | 2.39 | 2.93 | 2.65 | 2.23 | 0.362 | 0.034 | -0.0164 | 3.16
HCI-002, days in culture: 155 | 5.42 | 5.17 | 4.75 | 2.9 | 0.251 | 0.0733 | -0.011 | 4.45
HCI-002, days in culture: 168 | 3.2 | 3.41 | 3.79 | 1.24 | 0.0925 | 0.0935 | -0.00758 | 3.54
HCI-019, days in culture: 173 | 2.56 | 0.82 | 0.796 | 0.682 | 0.176 | 0.0215 | -0.00415 | 2.04
HCI-019, days in culture: 194 | 1.08 | 1.73 | 0.897 | 0.514 | 0.126 | 0.00997 | -0.00363 | 2.03
HCI-019, days in culture: 215 | 1.08 | 1.32 | 1.32 | 0.384 | 0.205 | 0.0145 | -0.000778 | 1.97
HCI-023, days in culture: 223 | 1.88 | 1.76 | 1.22 | 1.3 | 0.154 | 0.0393 | -0.00401 | 2.21
HCI-023, days in culture: 238 | 1.44 | 1.08 | 0.842 | 0.9 | 0.391 | 0.0393 | -0.00422 | 1.61
HCI-023, days in culture: 252 | 2.29 | 2.32 | 1.59 | 1.68 | 0.516 | 0.0524 | -0.00328 | 1.99
HCI-024, days in culture: 202 | 1.44 | 1.41 | 0.402 | 0.943 | 0.189 | 0.201 | 0.0124 | 0.718
HCI-024, days in culture: 231 | 1.26 | 1.41 | 1.2 | 0.91 | 0.331 | 0.141 | 0.0266 | 1.79
HCI-024, days in culture: 254 | 1.76 | 2 | 0.967 | 0.838 | 0.196 | 0.165 | 0.0227 | 1.93
HCI-027, days in culture: 145 | 1.6 | 2.63 | 1.78 | 0.146 | 0.087 | 0.0692 | -0.00274 | 1.49
HCI-027, days in culture: 158 | 3.01 | 2.81 | 2.46 | 0.544 | 0.0846 | 0.202 | -0.00223 | 4.2
HCI-027, days in culture: 164 | 2.5 | 1.5 | 1.53 | 0.169 | 0.142 | 0.104 | -0.00102 | 3.34
HCI-027, days in culture: 176 | 3.02 | 2.26 | 1.43 | 0.676 | 0.0317 | 0.0395 | -0.000121 | 2.01
HCI-027, days in culture: 186 | 1.68 | 0.902 | 1.46 | 0.866 | 0.0439 | 0.0934 | -0.00168 | 2.13
